Where no end group is shown, it is not given here.
Legend:
[1] = test system: EAE; conditions: Shijie et al. 2009; cited from earlier work
[2] = molecular target: T1, GAPDH (Rattus norvegicus, UniProt P04797); test: Pull-down affinity assay of GluR2-GAPDH interaction; type: binding; conditions: solubilized rat hippocampal tissue, approximately 100 μg GST-fusion protein
T1 construct: Rat hippocampus was homogenized in 50 mM Tris-HCl (pH 7.5); from tissue; host or cells: rat hippocampus homogenate
Protocol: Desired DNA sequences of the GluR2 N-terminus were obtained by polymerase chain reaction. The DNA sequences were digested with BamHI and Xhol enzymes to create sticky ends and subsequently incorporated into GST-plasmids (pGEX4T3) through DNA ligation. Following ligation, transformation with DH5a competent cells was performed to amplify the plasmid content. Subsequently, the plasmids were extracted and subjected to sequence confirmation. Having the desired DNA sequences confirmed, the GST-fusion proteins were expressed through the transformation with another strain of competent cells (i.e. BL21). The GST-fusion proteins were then precipitated and purified through glutathione resin (from Genescript).
Rat hippocampus was homogenized in 50 mM Tris-HCl (pH 7.5), 150 mM NaCl, 1% NP-40, 0.5% sodium deoxycholate, 1 mM EDTA, 10% Triton X-100, 1 mM PMSF and protease inhibitor cocktail (Sigma, 5 microl per 100 mg tissue). The hippocampal tissue was further solubilized with 1% Triton X-100 and then centrifuged at 14,000 rpm at 4° C. for 15 mins The solubilized hippocampal tissue (approximately 1 milligram of protein) was incubated with glutathione resin (Genescript) and indicated GST-fusion proteins (approximately 100 μg) at 4° C. overnight and followed by an hour of incubation at room temperature. After the incubation, the samples were washed 4-6 times with 1 mL PBS contained 0.1% Triton X-100. […]

[3] = test system: EAE mice; conditions: EAE mice (Fazio et al. 2008); cited from earlier work
[4] = test system: neurofilament-H; test: Neurofilament-H immunostaining, axonal density in EAE mouse spinal cord; type: in vivo; conditions: EAE mice spinal cord; compared to sham
Protocol: (§1) Frozen coronal sections of EAE mice spinal cord (10 μm) thickness were cut using a microtome cryostat system (Bright Instruments 5030). All sections were initially incubated in blocking solution (0.1 m PBS, 1% Triton X-100, 0.5% Tween 20, 2% skim milk) or serum-free protein block (Dako Cytomation) for 1 h at room temperature to reduce nonspecific background and then incubated with primary and secondary antibodies overnight at 4° C. The following primary antibodies were used: anti-Iba1 (1:200; Dako), anti-Neurofilament H (1:200), anti-CC1, anti-CNPase (1:200), and anti-NeuN (1:200). Fluorescent secondary antibodies conjugated to Alexa 488 or Rhodamine Red-X (1:200; Invitrogen) or Cy3 (1:100; Jackson ImmunoResearch Laboratories) were used for detection of primary antibodies.

[5] = test system: Iba1+ cells; test: Iba1 immunolabeling of macrophages/microglia in EAE mouse spinal cord; type: in vivo; conditions: EAE mice; compared to sham
Protocol: as §1
As MS is closely associated with inflammation and autoimmunity, the TAT-G-Gpep peptide was tested to determine if it affects microglial/macrophage recruitment.

[6] = test system: oligodendrocytes; test: CNPase- and CC1-labeled oligodendrocytes in EAE mouse spinal cord; type: in vivo; conditions: EAE mice, dorsal regions of spinal cord; compared to sham
Protocol: as §1

[7] = test system: myelin; test: Luxol Fast Blue staining of myelin in EAE mouse spinal cord; type: in vivo; conditions: EAE mice spinal cord; compared to sham
Protocol: At day 30, mice were sacrificed by overdose anesthesia, and the spinal cord was dissected for co-immunoprecipitation analysis. For analysis of central nervous system infiltrates, brain and spinal cord tissues were collected and mononuclear cells were prepared by Percoll gradient centrifugation. For immunological analysis, splenocytes cells were dissected and cultured in vitro. For histological analysis, the same tissue samples were immediately fixed in 4% (wt/vol) paraformaldehyde. Frozen sections of spinal cord were stained with Luxol fast blue for analysis of […].

[8] = test system: inflammation; conditions: EAE (Pitt et al.); cited from earlier work
[9] = test system: activated T-cells; conditions: Pitt et al.; cited from earlier work
[10] = test system: EAE in rats; conditions: direct application (Smith et al.); cited from earlier work
[11] = test system: cytokines; test: Bioplex, cytokine profiles in cultured spleenocytes re-stimulated with MOG35-55; type: in vivo, mice; conditions: vs the other two groups
Protocol: Cytokine measurement was performed by Bioplex Protein Array (Bio-Plex Pro™ Mouse Cytokine 23-plex Assay) from Bio-Rad as per manufacturer's instruction. EAE mice serum, culture supernatant of spleenocytes in different treatment groups and supernatant of brain infiltrated leukocyte culture were used for bioplex protein array in duplicates. The standard curves were optimized automatically by the software (Bioplex manager) and verified manually. The Bioplex manager software was used to calculate cytokine concentrations. Data is expressed as Mean±SEM.

[12] = test system: hippocampal neurons; conditions: animal models of ischemic stroke; previously shown (PCT/CA2007/001539); cited from earlier work
[13] = test system: GluR2-GAPDH interaction; conditions: previously shown (PCT/CA2007/001539); cited from earlier work
GluR2-GAPDH interaction, sequence (P04406 whole entry, the tested form may be a part): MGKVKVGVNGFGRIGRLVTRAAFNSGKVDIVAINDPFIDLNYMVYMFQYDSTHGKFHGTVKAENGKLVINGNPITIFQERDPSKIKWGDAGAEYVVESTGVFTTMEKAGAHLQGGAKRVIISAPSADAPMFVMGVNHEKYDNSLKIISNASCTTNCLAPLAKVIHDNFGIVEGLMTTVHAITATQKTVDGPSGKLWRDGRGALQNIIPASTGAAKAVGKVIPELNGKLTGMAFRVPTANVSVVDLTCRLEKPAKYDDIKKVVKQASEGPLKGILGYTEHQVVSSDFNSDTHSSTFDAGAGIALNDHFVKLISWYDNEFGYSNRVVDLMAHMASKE

T1 sequence (P04797 whole entry, the tested form may be a part): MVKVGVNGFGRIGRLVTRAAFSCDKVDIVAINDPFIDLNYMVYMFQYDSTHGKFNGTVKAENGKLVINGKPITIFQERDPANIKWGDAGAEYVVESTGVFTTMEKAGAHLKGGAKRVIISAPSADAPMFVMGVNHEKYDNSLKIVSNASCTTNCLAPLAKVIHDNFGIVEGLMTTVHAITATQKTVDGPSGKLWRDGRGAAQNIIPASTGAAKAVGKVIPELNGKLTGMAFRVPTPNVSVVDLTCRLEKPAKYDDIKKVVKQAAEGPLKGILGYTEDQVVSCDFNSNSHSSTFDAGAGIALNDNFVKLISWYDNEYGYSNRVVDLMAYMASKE

In the case of `[N-]=[N+]=CC(=O)CC[C@H](N)C(=O)O` [DON, 6-diazo-5-oxo-L-norleucine], the “neurological effects of EAE” value [1] is listed as “attenuated”.

With “GST alone: glutathione S-transferase alone, negative control” the “precipitation (pull down) of GAPDH” value [2] was “neither the GST alone nor the GST-fusion protein containing fragment 1 (Tyr142-Leu161 (SEQ ID NO:7)) sufficed to “pull down” GAPDH”.

In the case of `O=C(Nc1nc(C(F)(F)F)co1)C1c2ccccc2Oc2ccccc21` [RO0711401], the motor coordination [3] is listed as “improves motor coordination”.

In the case of “YGRKKRRQRRRAFDLSQYDLKWQVDYLKYDYGTASELRASA (G-Gpep-sc or G-Gpep-scrambled) [TAT-G-Gpep-sc, scrambled G-Gpep control peptide fused to TAT domain]”, the “area occupied by neurofilament-H” value [4] was “significantly lower”, the “number of Iba1+ cells in the dorsal and ventral horns” value [5] was “significantly more macrophages/microglia” and the “number of CNPase- and CC1-labeled oligodendrocytes” value [6] was “significantly lower”. For the same compound, the “demyelination (myelin in the ventral funiculus)” value [7] was “Significant demylenation”.

For `NS(=O)(=O)c1cccc2c1c([N+](=O)[O-])cc1nc(O)c(O)nc12` [NBQX], the amount of inflammation [8] is listed as “did not reduce”, the “in vitro proliferation of activated T-cells” value [9] is listed as “did not reduce” and the “acute and chronic neurological effects of EAE” value [10] is listed as “reduces the acute and chronic neurological effects of EAE”.

In the case of “GST-Fragment 2: GST fusion protein of fragment 2, Asp153-Lys172 of GluR2 N-terminus, DSDRGLSTLQAVLDSAAEKK (SEQ ID NO:5) (also: GST fusion protein)”, the “precipitation (pull down) of GAPDH” value [2] was “able to precipitate GAPDH”.

For `O=c1[nH]c2cc(C(F)(F)F)c(N3CCOCC3)cc2n(CP(=O)(O)O)c1=O` [MPQX], the “acute and chronic neurological effects of EAE” value [10] is listed as “reduces the acute and chronic neurological effects of EAE”.

For “YYQWDKFAYLYDSDRGLSTLQAVLDSAAEKK (GluR2 NT1-3-2) [G-Gpep, interfering peptide, GluR2 NT1-3-2 (Y142-K172)]”, the “immunoreactivity of spleenocytes (most cytokines)” value [11] is listed as “significantly suppressed”, the “protection of neurons from ischemia-induced cell death” value [12] is listed as “protecting neurons from ischemia-induced cell death” and the “disruption of GluR2-GAPDH interactions” value [13] is listed as “capable of disrupting GluR2-GAPDH interactions”.

In the case of `CC1(C)[C@@H](OC(=O)CCC(=O)O)CC[C@]2(C)[C@H]3C(=O)C=C4[C@@H]5C[C@@](C)(C(=O)O)CC[C@]5(C)CC[C@@]4(C)[C@]3(C)CC[C@@H]12` [carbenoxolone], the “neurological effects of EAE” value [1] is listed as “attenuated”.

From US9518104B2, “Compositions and methods for treating multiple sclerosis” (Centre for Addiction and Mental Health, priority 2012, dated 2016)
